The data set can be described thus: Accelerated aging method, long term stability at 45° C. The data set is classed as physicochemical. The note with it: temperature higher than 40° C., including 45° C. of the accelerated aging method.

SMILES strings stand for the structures.

Description: In certain embodiments, the 1 year period is achieved through simulating such conditions with the accelerated aging method. The accelerated aging method can be conducted by keeping the solutions at 45° C. for 8 weeks, which is equivalent to stability of 1 year under regular, room temperature conditions.
The accelerated aging method was conducted by keeping the solutions at 45° C. for 8 weeks, which is equivalent to stability of 1 year at regular, room temperature conditions.

Turning to `C=CCCCCCCCCC(=O)O` [Undecylenic acid], the “Solubility in solvents at elevated temperature” value is reported as “gradually precipitates”.
